Source: US12604893B2, “Compositions and methods for modulating microbiomes” (BOYCE THOMPSON INSTITUTE FOR PLANT RESEARCH, INC., priority 2019, dated 2026)

Legend:
B. subtilis = assay: Bacterial growth assay, media supplemented with ascarosides; assay type: cell-based; conditions: FIG. 1B
Protocol: (§1) FIG. 1A provides a graph and images of P. syringae growth. Bacterial growth media were supplemented with different concentrations of ascarosides. Ten-fold serially diluted bacterial cells were plated and bacterial growth and quantification was performed 3 days post incubation. FIG. 1B provides images of B. subtilis growth. Bacterial growth media were supplemented with different concentrations of ascarosides. Ten-fold serially diluted bacterial cells were plated and bacterial growth and quantification was performed 18 hours post incubation. FIG. 1C provides a graph showing biofilm formation of S. marcescens in the presence of 1 nM of ascr #3, ascr #9, ascr #10, and ascr #18. *P<0.05, **P<0.001, two-tailed t-test. Bacterial growth and biofilm assays have been independently repeated at least three times.
(§2) To test whether bacteria respond to ascarosides, a simple growth assay was utilized. […] Enhanced growth and rhizosphere colonization of P. fluorescens has been observed in the presence of nematodes (Knox, et al. (2004) Appl. Environ. Microbiol., 70:4666-4671) and this may be due to ascr #18 excretion. Next, a wider selection of bacterial species from soil and human environments, including P. tabacum, P. fluorescens, S. marcescens, E. faecalis, and B. subtilis, was studied. […] In contrast to ascr #18, the effects of other ascarosides such as ascr #9, ascr #10, and ascr #3 were species-specific.

S. marcescens = assay: as above; assay type: cell-based
Text: as §2

P. fluorescens = assay: as above; assay type: cell-based
Text: as §2

P. syringae [1] = assay: as above; assay type: cell-based; conditions: growth media supplemented with 1 and 10 nM; FIG. 1A
Protocol: as §1, §2

soil samples = assay: Comparative metabolomics of soil samples treated with ascr #18; assay type: in vitro ADME
Protocol: (§3) To investigate whether ascarosides affect soil microbiomes, soil samples were collected from sites free from pesticide and fertilizer applications to ensure inclusion of a representative diversity of natural microbes (Panke-Buisse, et al. (2015) ISME J., 9:980-9; Lebeis, et al. (2015) Science 349:860-864). The soil samples were treated with low nanomolar concentrations of ascr #18 for 24 hours followed by microbial DNA and metabolome extraction. DNA sequencing was performed by targeting conserved 16s rRNA for bacteria and internal transcribed spacer (ITS) gene for fungi (Panke-Buisse, et al. (2015) ISME J., 9:980-9).
(§4) To identify which specific microbes from the soil are responsible for ascr #18 metabolism, the effect of ascr #18 on individual microbes was tested. Bacteria and fungi in the soil interact with nematodes in diverse ways (Lakshmanan, et al. (2014) Plant Physiol., 166:689-700; Knox, et al. (2004) Appl. Environ. Microbiol., 70:4666-4671; Siddiqui, et al. (1999) Bioresour. Technol., 69:167-179). Microbial metabolism of ascr #18 was assessed in three bacteria, E. coli, Agrobacterium tumefaciens, and P. syringae and two fungi, Aspergillus fumigatus and A. flavus, all of which are commonly found in soil. […] Whereas, like fungi, all tested plants and animals are capable of metabolizing ascr #18, it appears that bacteria (and perhaps other prokaryotes) lack this ability.

soil microbiome = assay: Soil samples treated with ascr #18, microbial DNA sequencing (16s rRNA, ITS); conditions: low nanomolar concentrations, 24 hours; preliminary analyses
Protocol: as §3

A. flavus = assay: Microbial metabolism of ascr #18; assay type: in vitro ADME
Protocol: as §4

Aspergillus fumigatus = assay: Microbial metabolism of ascr #18; assay type: in vitro ADME
Protocol: as §4

P. syringae [2] = assay: Microbial metabolism of ascr #18; assay type: in vitro ADME
Protocol: as §4

E. coli [3] = assay: Microbial metabolism of ascr #18; assay type: in vitro ADME
Protocol: as §4

[4] = tested on: Agrobacterium tumefaciens; assay: Microbial metabolism of ascr #18; assay type: in vitro ADME
Protocol: as §4

P. tabacum = assay: Bacterial growth assay, media supplemented with ascarosides; assay type: cell-based
Text: as §2

E. coli [5] = assay: as above; assay type: cell-based; conditions: growth media supplemented with 1 and 10 nM
Text: as §2

A. tumefaciens = assay: as above; assay type: cell-based; conditions: growth media supplemented with 1 and 10 nM
Text: as §2

E. faecalis = assay: as above; assay type: cell-based
Text: as §2

SMILES	bacterial growth of B. subtilis (B. subtilis)	bacterial growth of S. marcescens (S. marcescens)	bacterial growth of P. fluorescens (P. fluorescens)	bacterial growth of P. syringae (P. syringae [1])	metabolism of ascr #18 in soil samples (soil samples)	effect on microbial composition of the soil (soil microbiome)	metabolism of ascr #18 by A. flavus (A. flavus)	metabolism of ascr #18 by Aspergillus fumigatus (Aspergillus fumigatus)	metabolism of ascr #18 by P. syringae (P. syringae [2])	metabolism of ascr #18 by E. coli (E. coli [3])	metabolism of ascr #18 by Agrobacterium tumefaciens [4]	bacterial growth of P. tabacum (P. tabacum)	bacterial growth of E. coli (E. coli [5])	bacterial growth of A. tumefaciens (A. tumefaciens)	bacterial growth of E. faecalis (E. faecalis)
C[C@H](CCC(=O)O)O[C@@H]1O[C@@H](C)[C@H](O)C[C@H]1O [ascr #9]	suppressed	promoted growth	suppressed	–	–	–	–	–	–	–	–	–	–	–	–
CC1O[C@@H](O[C@@H](C)CCCCCCCCC(=O)O)C(O)C[C@H]1O (stereo in doubt) [ascr #18, (10R)-(3′R,5′R-dihydroxy-6'S-methyl-(2H)-tetrahydropyran-2-yloxy)-undecanoic acid]	generally promoted growth	generally promoted growth	generally promoted growth	significant growth increase	extensively edited into shorter side-chained ascarosides	shifts microbial composition of the soil	metabolized into shorter-chained ascarosides	metabolized into shorter-chained ascarosides	none of the bacteria were able to metabolize	none of the bacteria were able to metabolize	none of the bacteria were able to metabolize	generally promoted growth	not affected	not affected	generally promoted growth
CC1O[C@@H](O[C@H](C)CCCCCCC(=O)O)C(O)C[C@H]1O (stereo partly drawn) [ascr #10]	suppressed	promoted growth	suppressed	–	–	–	–	–	–	–	–	–	–	–	–
CC1O[C@@H](O[C@H](C)CCCC/C=C/C(=O)O)C(O)C[C@H]1O (stereo partly drawn) [ascr #3]	suppressed	promoted growth	suppressed	–	–	–	–	–	–	–	–	–	–	–	–
